Source: US20150164762A1, “USE OF ETHANOLAMINE PHOSPHATE” (priority 2012, published 2015)
Like-named read-outs stand apart in the source and are kept apart here.

What was measured:
BEAS-2B [1] = assay: Permeability test, 4-kilodalton fluorescent dextran through BEAS-2B cell sheet (Papp); type: cell-based, human; conditions: Dex 1 μM, with or without EP 1 mM
Method: Cells of the established normal human airway epithelial cell line BEAS-2B were seeded to 1×10^5 cells/cm^2 on a cell culture insert (353104, BD Falcon) (FIG. 14). 10% FBS RPMI-1640 was used as the medium. The amount of medium was 200 μl on the insert side and 750 μl on the well side. Beginning the next day, substitution/medium replacement was performed once a day with 1% FBS RPMI-1640 prepared with the following 4 reagent conditions, and transepithelial electrical resistance (TER) was measured with MilliCell (Millipore). • Condition 1: Control • Condition 2: EP 1 mM • Condition 3: Dexamethasone 1 μM (dexamethasone (Dex): positive control substance known to enhance barrier function) • Condition 4: EP 1 mM and Dex 1 μM
7 days after cell seeding a permeability test was performed as follows.
A 4-kilodalton fluorescent dextran molecule (Sigma) was added to the cell culture insert to a concentration of 0.1 mg/ml, 20 μl of the medium on the well side was removed after 1 hour, and the amount of permeating fluorescent dextran was estimated from the fluorescent strength at each concentration. The permeation rate Papp of a substance from the insert side to the well side is normally determined by the following formula.
Papp=(volume of medium on well side/insert area×initial insert concentration)×(altered concentration on well side/elapsed time)

BEAS-2B [2] = assay: Proliferation test with GABA receptor agonists and GABA-A antagonist (WST-8); type: cell-based, human; conditions: 0.1% FBS, 72 hours
Method: […] […] Next, 10 μl per well of GABA (GABA-A and GABA-B receptor agonist) and homotaurine (GABA-A agonist) were added. A proliferation test (WST-8 assay) was performed after 72 hours.
[…] […] 10 μl per well of EP solution was added. A proliferation test (WST-8 assay) was performed after 72 hours.

BEAS-2B [3] = assay: Proliferative effects of EP and its metabolic derivatives (WST-8); type: cell-based, human
HHDPC cells = assay: WST-8 proliferation test, primary normal human hair dermal papilla cells (HHDPC); conditions: high concentrations
Method: HHDPC cells (Cosmo Bio) were seeded to 1×10^4 cells/cm^2 on a 96-well plate. Complete MSCM medium (500, ScienCell) was used as the medium. After 24 hours, the cells were washed gently with 200 μl per well of PBS, the medium was replaced with 90 μl per well of 0% FBS DMEM with 1 vol % of complete MSCM medium added thereto, and the cells were cultured for 24 hours. After culture, 10 μl per well of EP solution was added, and a proliferation test (WST-8 assay) was performed 6 days after EP administration. The WST-8 assay was performed as in Example 1. The same test was performed using minoxidil, which has a clinical hair growth effect.

BEAS-2B [4] = assay: Cell toxicity of H2O2 after EP pre-treatment (WST-8 assay); type: cell-based, human; conditions: Homo sapiens, BEAS-2B, read-out: EC50 (50% cell death concentration of H2O2)
Method: Cells of the normal airway epithelial cell line BEAS-2B were seeded at a density of 1×10^5/cm^2 on a 96-well plate, and after 24 hours the medium was replaced with 0.5% FBS RPMI 1640 containing EP at final concentrations of 0, 250 and 500 μM. 24 hours after medium replacement the medium was replaced with 0.5% FBS RPMI-1640, and serially diluted H2O2 was administered (n=4). 24 hours after H2O2 administration a cell toxicity test WST-8 assay (Cell Counting Kit-8, Dojindo) was performed. For the data analysis, the 50% cell death concentration EC50 was calculated with GraphPad Prism 5 statistical analysis software.

BEAS-2B [5] = assay: DNA microarray of H2O2-treated samples and correlational analysis with EP; type: cell-based, human; conditions: H2O2 125 μM, 6 hours
Method: The data of Example 13 were used as the EP gene expression data. Cell preparation and H2O2 administration were performed as in Test 13. Samples that had been treated for 6 hours with H2O2 at a final concentration of 125 μM were used as samples for gene expression analysis by DNA microarray.

`C[C@@H]1C[C@H]2[C@@H]3CCC4=CC(=O)C=C[C@]4(C)[C@@]3(F)[C@@H](O)C[C@]2(C)[C@@]1(O)C(=O)CO` [dexamethasone, reference compound] was tested, and the “drop in Papp” value (BEAS-2B [1]) was “no rise in TER or drop in Papp”.
`C[N+]1(C)CCc2cc3c(cc2[C@H]1[C@@H]1OC(=O)c2c1ccc1c2OCO1)OCO3.[Cl-]` [BM, (−)-Bicuculline Methochloride] was tested, and the “inhibition of the proliferative action of EP” value (BEAS-2B [2]) was “not inhibited”.
In the case of `C[N+](C)(C)CCOP(=O)(O)OP(=O)([O-])OC[C@H]1O[C@@H](n2ccc(N)nc2=O)[C@H](O)[C@@H]1O` [CDP-choline], the “animal cell proliferation without serum or growth factors” value (BEAS-2B [3]) is reported as “not obtained”.
In the case of `Nc1cc(N2CCCCC2)nc(N)[n+]1[O-]` [Minoxidil, minoxidil, reference compound], the cell toxicity (HHDPC cells) is reported as “toxic above that range”.
`NCCO` [ethanolamine] was tested, and the “animal cell proliferation without serum or growth factors” value (BEAS-2B [3]) was “not obtained” and the proliferative action (BEAS-2B [3]; 0.1% FBS, 72 hours) was “much weaker than that of EP”.
`NCCCS(=O)(=O)O` [homotaurine] was tested, and the proliferative action (BEAS-2B [2]) was “neither the GABA-A and GABA-B receptor agonist GABA nor the EP structural analog and GABA-A receptor agonist homotaurine exhibited any statistically significant proliferative action”.
In the case of `OCCNCCO` [diethanolamine], the “animal cell proliferation without serum or growth factors” value (BEAS-2B [3]) is reported as “not obtained”.
`OO` [H2O2, hydrogen peroxide, reference compound] showed an EC50 (BEAS-2B [4]; cells pre-treated with 250 uM EP) of 190 µM, an EC50 (BEAS-2B [4]; cells pre-treated with 500 uM EP) of 177 µM and an EC50 (BEAS-2B [4]; control, no EP pre-treatment, 24 h) of 128 µM. For the same compound, the “expression of apoptosis-associated genes reduced by EP (30 probes)” value (BEAS-2B [5]) was “generally had their expression increased” and the “expression of cytokines and chemokines” value (BEAS-2B [5]) was “induced expression of cytokines and chemokines”.
In the case of `NCCCC(=O)O` [GABA], the proliferative action (BEAS-2B [2]) is reported as “neither the GABA-A and GABA-B receptor agonist GABA nor the EP structural analog and GABA-A receptor agonist homotaurine exhibited any statistically significant proliferative action”.
In the case of `C[N+](C)(C)CCOP(=O)(O)O` [phosphorylcholine], the “animal cell proliferation without serum or growth factors” value (BEAS-2B [3]) is reported as “not obtained”.
